Values of other authors, collected in US20010031747A1, “Progestin therapy for maintaining amenorrhea” (COLUMBIA LABORATORIES (BERMUDA) LIMITED, priority 1997, published 2001).
Where two headings read alike, the source gives them in different places.

Tests used:
endometrium = conditions: topical application to the breast
[1] = subdermal, six 100 mg pellets
[2] = sublingual
[3] = intramuscular; 100 mg doses
[4] = nasal

Mean peak progesterone level ([1]; six months after implantation): 1.9 ng/mL
Peak progesterone level ([1]; within the first week after insertion): 4.4 ng/mL
Time to return to basal levels [2]: twenty-four
Time to achieve serum concentrations [3]: two to eight
Mean maximum concentration ([4]; 20 mg dose): 2.1 ng/mL
Time of mean maximum concentration ([4]; 20 mg dose): approximately 30 minutes
Mean maximum concentration ([4]; 30 mg dose): 4.1 ng/mL
Time of mean maximum concentration ([4]; 30 mg dose): ~240 min
Increase over baseline serum levels (vaginal suspension 50 mg/ml (carboxymethyl cellulose, methyl cellulose), after 15 minutes): 10 fold
Peak increase over baseline levels (vaginal suspension 50 mg/ml, at peak): thirty- to forty
Serum level after decline (vaginal suspension 50 mg/ml, declining over the next ten hours): 3.68 ng/mL
Peak serum level (vaginal suspension 50 mg/ml, maintained over the next seven hours): 12.25 ng/mL
Structure (SMILES): CC(=O)[C@H]1CC[C@H]2[C@@H]3CCC4=CC(=O)CC[C@]4(C)[C@H]3CC[C@]12C [progesterone]
Endometrial effects (endometrium): no significant endometrial effects
